# How the values were obtained:
# [1] = target: purified human, His-tagged PRC2 complex (Homo sapiens, UniProt O75530+Q15910); assay: Hot Spot HMT assay: inhibition of PRC2 enzymatic activity (transfer of tritiated methyl from SAM to core histone, filter binding); assay type: biochemical; settings: Inhibition of PRC2-mediated enzymatic activity; 10 nM PRC2 complex, 0.05 mg/ml core histone H3, 1 uM 3H-SAM, 1 hr at 30°C
# Summary of the method: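 Serial compound dilutions starting at 1.0 µM were pre-incubated 20 min at 30°C with 10 nM complex (His-EZH2, Flag-EED, His-SUZ12, His-AEBP2, His-RbAp48) and 0.05 mg/ml core H3. Reaction ran 1 hr at 30°C after adding 1 uM [3H]-SAM; scintillation counting followed filtration.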
# Karpas 422 cells = assay: Karpas 422 cell viability, CTG (Cell Titre Glo) assay; assay type: cell-based, human; settings: Homo sapiens; Inhibition of proliferation of Karpas 422 cells (EZH2 Y641N); viability measured Day 4, Day 7 or Day 11, time point of the tabulated values not stated
# Experimental: Karpas 422 cell line is a human B cell non-Hodgkin's lymphoma cell line established from a patient having DLBCL. This EZH2 heterozygotic cell line expresses a mutant form of EZH2 enzyme (Y641N) that increases histone H3 methylation and this mutation has been implicated in the tumorgenesis of lymphomas, such as DLBCL.
# Karpas 422 cells (PHE cat no., 06101702) were cultured in RPMI medium supplemented with 20% fetal bovine serum and 1% penicillin/1% streptomycin and plated at a density of 1000 cells/90 µl/well in 96 well white assay plates. A dose response curve for compounds of the present invention was determined by adding a 10µl aliquot of stock solutions of varying concentrations of compounds to the same medium in each well, over a concentration range of 10µM using 3-fold dilutions to a final concentration of 1.5nM. The plates were incubated at 37° C for predetermined time periods, Day 4, Day 7, or Day 11, and the viability of the cells was measured using a CTG assay kit (Cell Titre Glo; Promega cat.no G7573) on Day 4 and Day 7 in accordance with the manufacturer's instructions.
# For the viability assay for the Day 11 plates, the plates were subjected to centrifugation at 1100 rpm for five minutes on Day 7 and the supernatant was removed by aspiration. The cells were resuspended in 90 µl aliquot of the appropriate growth medium lacking the compound followed by addition of 10 µl of a 10X stock of the same compound at the same concentration. The viability of the Day 11 cells was measured using the CTG assay kit described above in accordance with the manufacturer's instructions. The IC50 values for each compound at each predetermined time point were calculated using Graph pad PRISM software and the results are shown in Table 15. A = ≤250 nM; B = […] - ≤500 nM; and C = >500 nM.
# Sequence of purified human, His-tagged PRC2 complex (Q15910 whole entry): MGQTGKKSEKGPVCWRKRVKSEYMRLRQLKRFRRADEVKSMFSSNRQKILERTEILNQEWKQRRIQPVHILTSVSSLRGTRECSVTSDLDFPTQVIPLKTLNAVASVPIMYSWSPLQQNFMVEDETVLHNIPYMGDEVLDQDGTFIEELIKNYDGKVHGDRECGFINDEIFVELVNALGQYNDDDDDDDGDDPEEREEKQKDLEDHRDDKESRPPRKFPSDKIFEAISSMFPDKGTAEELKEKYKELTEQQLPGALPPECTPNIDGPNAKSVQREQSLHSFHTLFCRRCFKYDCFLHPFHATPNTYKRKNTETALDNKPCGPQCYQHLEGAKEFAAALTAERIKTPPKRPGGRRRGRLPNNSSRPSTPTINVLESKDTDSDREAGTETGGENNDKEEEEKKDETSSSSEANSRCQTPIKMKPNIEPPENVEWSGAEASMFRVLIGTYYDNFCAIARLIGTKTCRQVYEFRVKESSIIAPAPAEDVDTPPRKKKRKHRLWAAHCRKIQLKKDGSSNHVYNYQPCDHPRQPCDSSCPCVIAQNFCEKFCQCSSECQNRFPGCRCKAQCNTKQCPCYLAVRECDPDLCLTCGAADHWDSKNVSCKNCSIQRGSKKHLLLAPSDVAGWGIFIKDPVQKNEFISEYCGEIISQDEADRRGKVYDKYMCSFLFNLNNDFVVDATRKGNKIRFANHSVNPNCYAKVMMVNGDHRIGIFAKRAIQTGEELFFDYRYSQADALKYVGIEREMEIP
# Sequence of purified human, His-tagged PRC2 complex (O75530 whole entry): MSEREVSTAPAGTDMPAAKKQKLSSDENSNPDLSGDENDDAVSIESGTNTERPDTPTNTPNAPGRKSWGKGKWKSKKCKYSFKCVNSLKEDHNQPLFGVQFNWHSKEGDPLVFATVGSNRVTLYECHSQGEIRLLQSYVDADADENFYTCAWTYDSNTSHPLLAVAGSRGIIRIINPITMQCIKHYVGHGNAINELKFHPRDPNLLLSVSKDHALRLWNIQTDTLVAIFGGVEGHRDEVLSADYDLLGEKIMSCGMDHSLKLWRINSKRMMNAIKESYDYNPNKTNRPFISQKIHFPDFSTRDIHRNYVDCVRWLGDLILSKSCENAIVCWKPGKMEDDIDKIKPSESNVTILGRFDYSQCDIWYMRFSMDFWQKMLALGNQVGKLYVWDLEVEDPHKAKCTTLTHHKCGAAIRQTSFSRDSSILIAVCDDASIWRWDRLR
# Sequence of purified human, His-tagged PRC2 complex (Q15022 whole entry partner): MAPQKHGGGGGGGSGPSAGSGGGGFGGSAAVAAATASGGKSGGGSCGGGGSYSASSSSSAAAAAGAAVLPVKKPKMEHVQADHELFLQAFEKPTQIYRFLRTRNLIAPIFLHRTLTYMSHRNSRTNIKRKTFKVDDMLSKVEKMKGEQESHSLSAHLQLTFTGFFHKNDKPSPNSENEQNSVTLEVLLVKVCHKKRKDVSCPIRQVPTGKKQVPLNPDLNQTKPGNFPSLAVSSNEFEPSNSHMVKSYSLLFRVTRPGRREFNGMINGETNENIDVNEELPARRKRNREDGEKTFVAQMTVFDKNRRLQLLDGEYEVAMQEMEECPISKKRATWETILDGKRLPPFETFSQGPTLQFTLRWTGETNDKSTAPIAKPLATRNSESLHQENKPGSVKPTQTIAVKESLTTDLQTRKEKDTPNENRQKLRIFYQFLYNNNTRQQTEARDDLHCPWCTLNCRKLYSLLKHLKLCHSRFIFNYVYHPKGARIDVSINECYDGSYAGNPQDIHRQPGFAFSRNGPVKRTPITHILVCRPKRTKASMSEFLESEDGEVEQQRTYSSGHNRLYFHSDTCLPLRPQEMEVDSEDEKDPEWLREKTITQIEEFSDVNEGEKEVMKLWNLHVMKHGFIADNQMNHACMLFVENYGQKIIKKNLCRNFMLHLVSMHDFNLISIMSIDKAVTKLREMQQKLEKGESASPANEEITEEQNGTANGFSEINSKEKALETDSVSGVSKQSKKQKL
# Sequence of purified human, His-tagged PRC2 complex (Q6ZN18 whole entry partner): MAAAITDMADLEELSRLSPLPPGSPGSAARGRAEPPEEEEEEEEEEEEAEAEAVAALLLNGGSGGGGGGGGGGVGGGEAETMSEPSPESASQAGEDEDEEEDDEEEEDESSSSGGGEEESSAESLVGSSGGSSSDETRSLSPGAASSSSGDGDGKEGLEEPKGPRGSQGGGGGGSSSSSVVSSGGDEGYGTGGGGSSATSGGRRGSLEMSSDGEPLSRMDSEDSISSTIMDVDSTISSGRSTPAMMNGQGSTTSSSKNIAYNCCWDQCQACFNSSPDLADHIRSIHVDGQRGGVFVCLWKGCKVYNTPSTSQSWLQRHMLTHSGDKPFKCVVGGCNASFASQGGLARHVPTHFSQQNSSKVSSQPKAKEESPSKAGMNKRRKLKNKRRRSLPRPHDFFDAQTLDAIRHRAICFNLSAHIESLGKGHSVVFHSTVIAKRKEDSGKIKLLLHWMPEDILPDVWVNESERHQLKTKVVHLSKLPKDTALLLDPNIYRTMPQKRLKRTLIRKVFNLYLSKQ
# Sequence of purified human, His-tagged PRC2 complex (Q09028 whole entry partner): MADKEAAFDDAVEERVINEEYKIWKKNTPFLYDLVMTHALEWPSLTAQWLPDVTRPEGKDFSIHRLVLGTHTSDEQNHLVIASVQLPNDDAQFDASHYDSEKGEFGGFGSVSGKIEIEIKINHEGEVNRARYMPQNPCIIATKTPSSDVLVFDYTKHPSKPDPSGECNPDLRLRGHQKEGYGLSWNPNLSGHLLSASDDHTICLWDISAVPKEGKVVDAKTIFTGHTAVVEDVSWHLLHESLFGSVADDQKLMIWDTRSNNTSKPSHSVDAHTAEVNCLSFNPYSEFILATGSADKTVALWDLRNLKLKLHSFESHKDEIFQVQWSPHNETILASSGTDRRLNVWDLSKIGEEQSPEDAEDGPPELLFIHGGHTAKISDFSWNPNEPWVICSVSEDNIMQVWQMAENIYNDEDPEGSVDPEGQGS
IC50 [1],IC50 (Karpas 422 cells),SMILES
< 100 nM,≤ 250 nM,"Cc1ncncc1-c1cnc(NCc2c(F)ccc3c2CCO3)n2cc(C#N)nc12 [Example 110, 5-(((5-fluoro-2,3-dihydrobenzofuran-4-yl)methyl)amino)-8-(4-methylpyrimidin-5-yl)imidazo[1,2-c]pyrimidine-2-carbonitrile]"
< 100 nM,≤ 250 nM,"Cc1cc(C(=O)N(C)C)ccc1-c1cnc(NCc2c(F)ccc3c2CCO3)n2cc(C#N)nc12 [Example 44, 4-(2-cyano-5-(((5-fluoro-2,3-dihydrobenzofuran-4-yl)methyl)amlno)lmldazo[1,2-c]pyrlmldln-8-yl)-N,N,3-trimethylbenzamide]"
< 100 nM,> 500 nM,"Cc1cc(-c2cnc(NCc3c(F)ccc4occc34)n3cc(C(=O)O)nc23)n(C)n1 [Example 9, 8-(1,3-dimethyl-1H-pyrazol-5-yl)-5-(((5-fluorobenzofuran-4-yl)methyl)amino)imidazo[1,2-c]pyrimidine-2-carboxylic acid]"
< 100 nM,≤ 250 nM,"Cc1ccncc1-c1cnc(NCc2c(F)ccc3c2CCO3)n2cc(C#N)nc12 [Example 98, 5-(((5-fluoro-2,3-dihydrobenzofuran-4-yl)methyl)amino)-8-(4-methylpyridin-3-yl)imidazo[1,2-c]pyrimidine-2-carbonitrile]"
100 to 500 nM,≤ 250 nM,"Cc1nc(N2CCN(C)CC2)ccc1-c1cnc(NCc2c(F)ccc3c2CCO3)n2cc(C#N)nc12 [Example 136, 5-(((5-fluoro-2,3-dihydrobenzofuran-4-yl)methyl)amino)-8-(2-methyl-6-(4-methylpiperazin-1-yl)pyridin-3-yl)imidazo[1,2-c]pyrimidine-2-carbonitrile]"
< 100 nM,250 to 500 nM,"Cc1cc(-c2cnc(NCc3cccc4c3CCO4)n3cc(C(N)=O)nc23)n(C)n1 [Example 19, 5-(((2,3-dihydrobenzofuran-4-yl)methyl)amino)-8-(1,3-dimethyl-1H-pyrazol-5-yl)imidazo[1,2-c]pyrimidine-2-carboxamide]"
100 to 500 nM,≤ 250 nM,"COCCn1cc(-c2cnc(NCc3c(F)ccc4c3CCO4)n3cc(C#N)nc23)cn1 [Example 117, 5-(((5-fluoro-2,3-dihydrobenzofuran-4-yl)methyl)amino)-8-(1-(2-methoxyethyl)-1H-pyrazol-4-yl)imidazo[1,2-c]pyrimidine-2-carbonitrile]"
100 to 500 nM,> 500 nM,"COc1ncc(-c2cnc(NCc3c(F)ccc4c3CCO4)n3cc(C#N)nc23)cc1C#N [Example 130, 8-(5-cyano-6-methoxypyridin-3-yl)-5-(((5-fluoro-2,3-dihydrobenzofuran-4-yl)methyl)amino)imidazo[1,2-c]pyrimidine-2-carbonitrile]"
< 100 nM,> 500 nM,"N#Cc1ccc(-c2cnc(NCc3c(F)ccc4c3CCO4)n3cc(C#N)nc23)cn1 [Example 128, 8-(6-cyanopyridin-3-yl)-5-(((5-fluoro-2,3-dihydrobenzofuran-4-yl)methyl)amino)imidazo[1,2-c]pyrimidine-2-carbonitrile]"
< 100 nM,250 to 500 nM,"N#Cc1cn2c(NCc3c(F)ccc4c3CCO4)ncc(-c3cccnc3C(F)F)c2n1 [Example 64, 8-(2-(difluoromethyl)pyridin-3-yl)-5-(((5-fluoro-2,3-dihydrobenzofuran-4-yl)methyl)amino)imidazo[1,2-c]pyrimidine-2-carbonitrile]"
< 100 nM,≤ 250 nM,"COc1ncc(-c2cnc(NCc3c(F)ccc4c3CCO4)n3cc(C#N)nc23)c(C)n1 [Example 88, 5-(((5-fluoro-2,3-dihydrobenzofuran-4-yl)methyl)amino)-8-(2-methoxy-4-methylpyrimidin-5-yl)imidazo[1,2-c]pyrimidine-2-carbonitrile]"
< 100 nM,250 to 500 nM,"Cc1cncc(-c2cnc(NCc3c(F)ccc4c3CCO4)n3cc(C#N)nc23)c1 [Example 96, 5-(((5-fluoro-2,3-dihydrobenzofuran-4-yl)methyl)amino)-8-(5-methylpyridin-3-yl)imidazo[1,2-c]pyrimidine-2-carbonitrile]"
< 100 nM,≤ 250 nM,"CN(C)Cc1ccc(-c2cnc(NCc3c(F)ccc4c3CCO4)n3cc(C#N)nc23)c(F)c1F [Example 37, 8-(4-((dimethylamino)methyl)-2,3-difluorophenyl)-5-(((5-fluoro-2,3-dihydrobenzofuran-4-yl)methyl)amino)imidazo[1,2-c]pyrimidine-2-carbonitrile]"
< 100 nM,≤ 250 nM,"CS(=O)(=O)c1ccc(-c2cnc(NCc3c(F)ccc4c3CCO4)n3cc(C#N)nc23)cc1 [Example 73, 5-(((5-fluoro-2,3-dihydrobenzofuran-4-yl)methyl)amino)-8-(4-(methylsulfonyl)phenyl)imidazo[1,2-c]pyrimidine-2-carbonitrile]"
< 100 nM,≤ 250 nM,"CN(C)Cc1ccc(-c2cnc(NCc3c(F)ccc4c3CCO4)n3cc(C#N)nc23)cc1 [Example 112, 8-(4-((dimethylamino)methyl)phenyl)-5-(((5-fluoro-2,3-dihydrobenzofuran-4-yl)methyl)amino)imidazo[1,2-c]pyrimidine-2-carbonitrile]"
< 100 nM,250 to 500 nM,"CNS(=O)(=O)c1ccc(-c2cnc(NCc3c(F)ccc4c3CCO4)n3cc(C#N)nc23)cc1 [Example 59, 4-(2-cyano-5-(((5-fluoro-2,3-dihydrobenzofuran-4-yl)methyl)amino)imidazo[1,2-c]pyrimidin-8-yl)-N-methylbenzenesulfonamide]"
< 100 nM,≤ 250 nM,"N#Cc1cn2c(NCc3c(F)ccc4c3CCO4)ncc(-c3cncc(F)c3)c2n1 [Example 97, 5-(((5-fluoro-2,3-dihydrobenzofuran-4-yl)methyl)amino)-8-(5-fluoropyridin-3-yl)imidazo[1,2-c]pyrimidine-2-carbonitrile]"
< 100 nM,> 500 nM,"Cc1nn(C)cc1-c1cnc(NCc2c(F)ccc3c2CCO3)n2cc(C#N)nc12 [Example 72, 8-(1,3-dimethyl-1H-pyrazol-4-yl)-5-(((5-fluoro-2,3-dihydrobenzofuran-4-yl)methyl)amino)imidazo[1,2-c]pyrimidine-2-carbonitrile]"
< 100 nM,≤ 250 nM,"CN1CCN(C(=O)c2ccc(-c3cnc(NCc4c(F)ccc5c4CCO5)n4cc(C#N)nc34)cc2)CC1 [Example 115, 5-(((5-fluoro-2,3-dihydrobenzofuran-4-yl)methyl)amino)-8-(4-(4-methylpiperazine-1-carbonyl)phenyl)imidazo[1,2-c]pyrimidine-2-carbonitrile]"
< 100 nM,≤ 250 nM,"N#Cc1cn2c(NCc3c(F)ccc4c3CCO4)ncc(-c3cnn(CC(F)(F)F)c3)c2n1 [Example 108, 5-(((5-fluoro-2,3-dihydrobenzofuran-4-yl)methyl)amino)-8-(1-(2,2,2-trifluoroethyl)-1H-pyrazol-4-yl)imidazo[1,2-c]pyrimidine-2-carbonitrile]"
< 100 nM,≤ 250 nM,"COC1CCN(Cc2ccc(-c3cnc(NCc4c(F)ccc5c4CCO5)n4cc(C#N)nc34)cc2)C1 (stereo not drawn) [Example 53, 5-(((5-fluoro-2,3-dihydrobenzofuran-4-yl)methyl)amino)-8-(4-((3-methoxypyrrolidin-1-yl)methyl)phenyl)imidazo[1,2-c]pyrimidine-2-carbonitrile]"
< 100 nM,> 500 nM,"CC(C)Oc1ccc(-c2cnc(NCc3c(F)ccc4c3CCO4)n3cc(C#N)nc23)cn1 [Example 133, 5-(((5-fluoro-2,3-dihydrobenzofuran-4-yl)methyl)amino)-8-(6-isopropoxypyridin-3-yl)imidazo[1,2-c]pyrimidine-2-carbonitrile]"
< 100 nM,≤ 250 nM,"CN(C)Cc1ccc(-c2cnc(NCc3c(F)ccc4c3CCO4)n3cc(C#N)nc23)c(Cl)c1 [Example 33, 8-(2-chloro-4-((dimethylamino)methyl)phenyl)-5-(((5-fluoro-2,3-dihydrobenzofuran-4-yl)methyl)amino)imidazo[1,2-c]pyrimidine-2-carbonitrile]"

SMILES,IC50 [1],IC50 (Karpas 422 cells)
"N#Cc1cn2c(NCc3c(F)ccc4c3CCO4)ncc(-c3cccnn3)c2n1 [Example 142, 5-(((5-fluoro-2,3-dihydrobenzofuran-4-yl)methyl)amino)-8-(pyridazin-3-yl)imidazo[1,2-c]pyrimidine-2-carbonitrile]",< 100 nM,≤ 250 nM

# Reference: patent EP4043466B1, “PRC2 INHIBITORS” (Mirati Therapeutics, Inc., priority 2018, dated 2019)
